The record followed here is patent US11738007B2, “Treatment of glaucoma using endothelin receptor antagonists” (Perfuse Therapeutics, Inc., priority 2019, dated 2023).

This test has as its target T1, ETB receptor (Homo sapiens, UniProt P24530).
T1 sequence (P24530 27-442): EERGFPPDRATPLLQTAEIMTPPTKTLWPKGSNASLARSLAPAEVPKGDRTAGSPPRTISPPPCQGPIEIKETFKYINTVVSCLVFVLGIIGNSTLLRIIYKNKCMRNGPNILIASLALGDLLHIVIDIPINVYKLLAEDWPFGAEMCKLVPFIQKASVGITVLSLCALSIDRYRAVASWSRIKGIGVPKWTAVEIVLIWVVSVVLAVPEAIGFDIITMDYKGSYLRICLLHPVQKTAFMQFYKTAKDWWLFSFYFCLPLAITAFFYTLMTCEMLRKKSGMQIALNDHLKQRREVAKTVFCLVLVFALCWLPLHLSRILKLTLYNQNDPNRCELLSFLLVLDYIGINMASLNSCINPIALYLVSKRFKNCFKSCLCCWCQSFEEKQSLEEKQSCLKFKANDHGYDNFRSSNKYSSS
Kind of test: Functional potency for ETB receptor. It counts as biochemical. The source says: In the above table, the physicochemical data, e.g., solubility, were obtained following standard protocols known in the field (see, e.g., Reis et al., Mini Rev Med Chem., 2010, 10(11):1071-6; Avdeef et al., Expert Opin Drug Metab Toxicol., 2005, 1(2):325-42; Bharate et al., Comb Chem High Throughput Screen., 2016, 19(6):461-9; and Jain et al., J Pharm Biomed Anal., 2013, 86:11-35); and the biochemical data, i.e., potency for ETA/ETB, were obtained following the protocols known in the field (see, e.g., Kirkby et al., Br J Pharmacol., 2008, 153(6):1105-19; and Maguire et al., Br J Pharmacol., 2014, 171(24):5555-72).

`Cc1onc(NS(=O)(=O)c2ccccc2-c2ccc(-c3ncco3)cc2CN(C)C(=O)CC(C)(C)C)c1C` [Edonentan, N-[[2′-[[(4,5-dimethyl-3-isoxazolyl)amino]sulfonyl]-4-(2-oxazolyl)[1,1′-biphenyl]-2-yl]methyl]-N,3,3-trimethylbutanamide] came in with an IC50 of 590 nM.

Broadly, the IC50 is the concentration at which inhibition is half-maximal. Read a high IC50 as weaker potency.
